Literature values in patent publication US20210315249A1, “Cannabis-Infused Product with Controlled Cannabinoid Profile User Experience” (HEXO […]., priority 2018, published 2021).
Like-named read-outs stand apart in the source and are kept apart here.

What was measured:
[1] = rats; solution in MCT oil or emulsion with droplet size 160 nm or 710 nm
[2] = dogs; emulsion droplet size 119 nm or 52 nm

Compound | bioavailability [1] | bioavailability [2]
COc1nc(C(Cl)(Cl)Cl)c(Cl)c(OC)c1Cl [penclomedine] | comparable bioavailability | 
CCCCN(CCCC)CCC(O)c1cc2c(Cl)cc(Cl)cc2c2cc(C(F)(F)F)ccc12 (centres unmarked) [halofantrine] |  | comparable bioavailability
